Source: US11242337B2, “Compounds useful for treating gastrointestinal tract disorders” (Ardelyx, Inc., priority 2017, dated 2022)

Molecular target: T1, NHE3 (Homo sapiens, UniProt P48764)
T1 construct: expressed in transfected cells
T1 sequence (P48764 26-834): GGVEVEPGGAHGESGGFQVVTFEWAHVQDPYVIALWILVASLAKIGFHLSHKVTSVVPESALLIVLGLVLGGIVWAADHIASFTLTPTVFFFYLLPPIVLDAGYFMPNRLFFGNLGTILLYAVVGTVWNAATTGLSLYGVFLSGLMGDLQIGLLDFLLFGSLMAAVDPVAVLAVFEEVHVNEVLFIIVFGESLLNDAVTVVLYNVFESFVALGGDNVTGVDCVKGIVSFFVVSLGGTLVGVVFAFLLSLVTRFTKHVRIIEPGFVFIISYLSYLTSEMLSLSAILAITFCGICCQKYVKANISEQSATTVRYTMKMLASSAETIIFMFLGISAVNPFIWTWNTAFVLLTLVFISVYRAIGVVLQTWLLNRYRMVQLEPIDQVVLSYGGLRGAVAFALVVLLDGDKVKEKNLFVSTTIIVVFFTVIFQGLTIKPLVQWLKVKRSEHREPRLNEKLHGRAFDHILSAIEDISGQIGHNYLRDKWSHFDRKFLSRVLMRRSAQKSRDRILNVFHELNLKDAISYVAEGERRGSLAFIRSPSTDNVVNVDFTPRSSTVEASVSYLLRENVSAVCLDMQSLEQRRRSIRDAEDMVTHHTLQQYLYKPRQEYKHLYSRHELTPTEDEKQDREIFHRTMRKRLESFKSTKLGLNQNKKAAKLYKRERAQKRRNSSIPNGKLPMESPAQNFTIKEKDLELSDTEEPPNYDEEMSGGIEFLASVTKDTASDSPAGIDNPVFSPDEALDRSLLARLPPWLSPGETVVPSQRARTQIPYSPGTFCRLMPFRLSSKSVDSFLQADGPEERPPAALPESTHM
T1 sequence (Q99653 2-195 partner limits assumed): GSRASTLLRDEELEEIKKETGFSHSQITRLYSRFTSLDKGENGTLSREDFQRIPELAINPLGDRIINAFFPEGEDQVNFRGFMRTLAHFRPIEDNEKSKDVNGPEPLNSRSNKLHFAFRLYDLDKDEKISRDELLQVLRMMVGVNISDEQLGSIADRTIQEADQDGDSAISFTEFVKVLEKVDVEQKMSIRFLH
Assay: persistent inhibition of NHE3 in the cell-based assay of example 181 (4-chloro vs 4-cyano pairs)
Details: for IC50: cell-based assay of example 181, after washout, read-out: pIC50 (persistent) (converted); for Percent Inhibition: cell-based assay of example 181, persistent
Method: The following pairs of compounds differ only in the 4-position substituent (either chloro (X—Cl) or cyano (X—CN)):
The ability of compounds to inhibit human and rat NHE-3-mediated Na^+ dependent H^+ antiport after application and washout was measured using a modification of the pH sensitive dye method described above. PS120 fibroblasts stably expressing human NHE3 and NHERF2 were obtained from Mark Donowitz (Baltimore, Md.). Opossum kidney (OK) cells were obtained from the ATCC and propagated per their instructions. The rat NHE-3 gene was introduced into OK cells via electroporation, and cells were seeded into 96 well plates and grown overnight. Medium was aspirated from the wells, cells were washed once with NaCl-HEPES buffer (100 mM NaCl, 50 mM HEPES, 10 mM glucose, 5 mM KCl, 2 mM CaCl2, 1 mM MgCl2, pH 7.4), then overlayed with NaCl-HEPES buffer containing 0-30 μM test compound. After a 60 min incubation at room temperature, the test drug containing buffer was aspirated from the cells. Following aspiration, cells were washed once with NaCl-HEPES buffer without drug, then incubated for 30 min at 37° C. with NH4Cl-HEPES buffer (20 mM NH4Cl, 80 mM NaCl, 50 mM HEPES, 5 mM KCl, 2 mM CaCl2, 1 mM MgCl2, pH 7.4) containing 5 μM BCECF-AM. Cells were washed once with Ammonium free, Na^+-free HEPES (100 mM choline, 50 mM HEPES, 10 mM glucose, 5 mM KCl, 2 mM CaCl2, 1 mM MgCl2, pH 7.4) and incubated in the same buffer for 10 minutes at room temperature to lower intracellular pH. NHE-3-mediated recovery of neutral intracellular pH was initiated (10 min after compound washout) by addition of Na-HEPES buffer. […] Changes in intracellular pH were monitored using a FLIPR Tetra® (Molecular Devices, Sunnyvale, Calif.) by excitation at λex 439 to 505 nm, and measuring BCECF fluorescence at λem 538 nm. The initial rate of the fluorescence ratio change was used as a measure of NHE-mediated Na^+/H^+ activity, and reported as the change in fluorescence ratio per minute.

Compound | IC50 [nM] | Percent Inhibition [%]
C[C@@H]1CN([C@H]2Cc3c(Cl)cc(Cl)cc3[C@@H]2Oc2ccc(S(=O)(=O)N[C@H]3CCN(C(=O)CNC(=O)CNC(=O)NCCCCNC(=O)NCC(=O)NCC(=O)N4CC[C@H](NS(=O)(=O)c5ccc(O[C@H]6c7cc(Cl)cc(Cl)c7C[C@@H]6N6CCN[C@H](C)C6)cc5)C4)C3)cc2)CCN1 [B-Cl, N-{2-[(3S)-3-(4-{[(1S,2S)-4,6-dichloro-2-[(3R)-3-methylpiperazin-1-yl]-2,3-dihydro-1H-inden-1-yl]oxy}benzenesulfonamido)pyrrolidin-1-yl]-2-oxoethyl}-2-({[4-({[({2-[(3S)-3-(4-{[(1S,2S)-4,6-dichloro-2-[(3R)-3-methylpiperazin-1-yl]-2,3-dihydro-1H-inden-1H-yl]oxy}benzenesulfonamido)pyrrolidin-1-yl]-2-oxoethyl}carbamoyl)methyl]carbamoyl}amino)butyl]carbamoyl}amino)acetamide] | 0.631 | 102
CN(C)[C@@H]1CCCN([C@H]2Cc3c(C#N)cc(Cl)cc3[C@@H]2Oc2ccc(S(=O)(=O)NCCOCCOCCNC(=O)NCCCCNC(=O)NCCOCCOCCNS(=O)(=O)c3ccc(O[C@H]4c5cc(Cl)cc(C#N)c5C[C@@H]4N4CCC[C@@H](N(C)C)C4)cc3)cc2)C1 [E-CN, 3-(2-{2-[2-(4-{[(1S,2S)-6-chloro-4-cyano-2-[(3R)-3-(dimethylamino)piperidin-1-yl]-2,3-dihydro-1H-inden-1-yl]oxy}benzenesulfonamido)ethoxy]ethoxy}ethyl)-1-(4-{[(2-{2-[2-(4-{[(1S,2S)-6-chloro-4-cyano-2-[(3R)-3-(dimethylamino)piperidin-1-yl]-2,3-dihydro-1H-inden-1-yl]oxy}benzenesulfonamido)ethoxy]ethoxy}ethyl)carbamoyl]amino}butyl)urea] | 1.26 | 36
CN(C)[C@@H]1CCCN([C@H]2Cc3c(Cl)cc(Cl)cc3[C@@H]2Oc2ccc(S(=O)(=O)NCCOCCOCCNC(=O)NCCCCNC(=O)NCCOCCOCCNS(=O)(=O)c3ccc(O[C@H]4c5cc(Cl)cc(Cl)c5C[C@@H]4N4CCC[C@@H](N(C)C)C4)cc3)cc2)C1 [E-Cl, 3-(2-{2-[2-(4-{[(1S,2S)-4,6-dichloro-2-[(3R)-3-(dimethylamino)piperidin-1-yl]-2,3-dihydro-1H-inden-1-yl]oxy}benzenesulfonamido)ethoxy]ethoxy}ethyl)-1-(4-{[(2-{2-[2-(4-{[(1S,2S)-4,6-dichloro-2-[(3R)-3-(dimethylamino)piperidin-1-yl]-2,3-dihydro-1H-inden-1-yl]oxy}benzenesulfonamido)ethoxy]ethoxy}ethyl)carbamoyl]amino}butyl)urea] | 5.01 | 99

The remaining lines, values ahead:

IC50 [nM] | Percent Inhibition [%] | Compound
0.501 | 106 | N#Cc1cc(Cl)cc2c1C[C@H](N1CCNCC1)[C@H]2Oc1ccc(S(=O)(=O)N[C@H]2CCN(CCOCCNC(=O)NCCCCNC(=O)NCCOCCN3CC[C@H](NS(=O)(=O)c4ccc(O[C@H]5c6cc(Cl)cc(C#N)c6C[C@@H]5N5CCNCC5)c(F)c4)C3)C2)cc1F [C-CN, 3-(2-{2-[(3 S)-3-(4-{[(1S,2S)-6-chloro-4-cyano-2-(piperazin-1-yl)-2,3-dihydro-1H-inden-1-yl]oxy}-3-fluorobenzenesulfonamido)pyrrolidin-1-yl]ethoxy}ethyl)-1-(4-{[(2-{2-[(3S)-3-(4-{[(1S,2S)-6-chloro-4-cyano-2-(piperazin-1-yl)-2,3-dihydro-1H-inden-1-yl]oxy}-3-fluorobenzenesulfonamido)pyrrolidin-1-yl]ethoxy}ethyl)carbamoyl]amino}butyl)urea]
3.98 | 90 | O=C(NCCCCNC(=O)NCCOCCN1CC[C@H](NS(=O)(=O)c2ccc(O[C@H]3c4cc(Cl)cc(Cl)c4C[C@@H]3N3CCNCC3)c(F)c2)C1)NCCOCCN1CC[C@H](NS(=O)(=O)c2ccc(O[C@H]3c4cc(Cl)cc(Cl)c4C[C@@H]3N3CCNCC3)c(F)c2)C1 [C-Cl, 3-(2-{2-[(3S)-3-(4-{[(1S,2S)-4,6-dichloro-2-(piperazin-1-yl)-2,3-dihydro-1H-inden-1-yl]oxy}-3-fluorobenzenesulfonamido)pyrrolidin-1-yl]ethoxy}ethyl)-1-(4-{[(2-{2-[(3S)-3-(4-{[(1S,2S)-4,6-dichloro-2-(piperazin-1-yl)-2,3-dihydro-1H-inden-1-yl]oxy}-3-fluorobenzenesulfonamido)pyrrolidin-1-yl]ethoxy}ethyl)carbamoyl]amino}butyl)urea]
0.501 | 74 | N#Cc1cc(Cl)cc2c1C[C@H](N1CCNCC1)[C@H]2Oc1ccc(S(=O)(=O)NCCOCCOCCNC(=O)NCCCCNC(=O)NCCOCCOCCNS(=O)(=O)c2ccc(O[C@H]3c4cc(Cl)cc(C#N)c4C[C@@H]3N3CCNCC3)c(F)c2)cc1F [D-CN, 3-(2-{2-[2-(4-{[(1S,2S)-6-chloro-4-cyano-2-(piperazin-1-yl)-2,3-dihydro-1H-inden-1-yl]oxy}-3-fluorobenzenesulfonamido)ethoxy]ethoxy}ethyl)-1-(4-{[(2-{2-[2-(4-{[(1S,2S)-6-chloro-4-cyano-2-(piperazin-1-yl)-2,3-dihydro-1H-inden-1-yl]oxy}-3-fluorobenzenesulfonamido)ethoxy]ethoxy}ethyl)carbamoyl]amino}butyl)urea]
3.98 |  | O=C(NCCCCNC(=O)NCCOCCOCCNS(=O)(=O)c1ccc(O[C@H]2c3cc(Cl)cc(Cl)c3C[C@@H]2N2CCNCC2)c(F)c1)NCCOCCOCCNS(=O)(=O)c1ccc(O[C@H]2c3cc(Cl)cc(Cl)c3C[C@@H]2N2CCNCC2)c(F)c1 [D-Cl, 3-(2-{2-[2-(4-{[(1S,2S)-4,6-dichloro-2-(piperazin-1-yl)-2,3-dihydro-1H-inden-1-yl]oxy}-3-fluorobenzenesulfonamido)ethoxy]ethoxy}ethyl)-1-(4-{[(2-{2-[2-(4-{[(1S,2S)-4,6-dichloro-2-(piperazin-1-yl)-2,3-dihydro-1H-1-inden-1-yl]oxy}-3-fluorobenzenesulfonamido)ethoxy]ethoxy}ethyl)carbamoyl]amino}butyl)urea]
2.51 | 88 | Cc1cc(S(=O)(=O)NCCOCCOCCNC(=O)NCCCCNC(=O)NCCOCCOCCNS(=O)(=O)c2ccc(O[C@H]3c4cc(Cl)cc(C#N)c4C[C@@H]3N3CCNCC3)c(C)c2)ccc1O[C@H]1c2cc(Cl)cc(C#N)c2C[C@@H]1N1CCNCC1 [F-CN, 3-(2-{2-[2-(4-{[(1S,2S)-6-chloro-4-cyano-2-(piperazin-1-yl)-2,3-dihydro-1H-inden-1-yl]oxy}-3-methylbenzenesulfonamido)ethoxy]ethoxy}ethyl)-1-(4-{[(2-{2-[2-(4-{[(1S,2S)-6-chloro-4-cyano-2-(piperazin-1-yl)-2,3-dihydro-1H-inden-1-yl]oxy}-3-methylbenzenesulfonamido)ethoxy]ethoxy}ethyl)carbamoyl]amino}butyl)urea]
